What all share (format): cell-based
Assay [1] deals with interaction between HRas and cRaf. As to the kind of experiment: Time course of fluorescent foci after EGF, HRas/cRaf (Example 28). To be noted: cells with p62(PB1)-HRas(WT) and AG-cRaf(R59A); 50 ng/ml; vicinity of the cell membrane. How it is done: EGF (manufactured by SIGMA CO.) was added thereto to the final concentration of 50 ng/ml. A measurement apparatus capable of detecting a fluorescent signal only in the vicinity of the cell membrane was used for the observation. Note that the observation was started 5 minutes before the EGF addition, and continued at 5-minute intervals for 30 minutes after the addition. The observation was made another 30 minutes thereafter. On the basis of the obtained image data, analysis was performed by the same method as that described in Example 11, and a graph was prepared by plotting a total fluorescence intensity of fluorescent foci (assemblies) against time. Note that, in the graph, the x axis represents time (minutes), provided that time when EGF was added is 0, and the y axis represents the total fluorescence intensity of fluorescent foci (assemblies).

In assay [2] the test system is interaction between an ERK substrate and Pin1(ww). The assay is described as follows: Time course of fluorescent foci after EGF and U0126, 293 cells (Example 27). To be noted: 293 cells expressing p62(PB1)-ERK_substrate and AG-Pin1(ww)-NES; 50 ng/ml. Here is the method:
On the next day, EGF (manufactured by SIGMA CO.) was added to the cells to the final concentration of 50 ng/ml. Further, 14 minutes thereafter, U0126 was added to the cells to the final concentration of 10 μM. Meanwhile, the cell observation was started 2 minutes before the EGF addition, and the observed images were obtained every 15 seconds. The obtained images were used to analyze a total fluorescence luminance of fluorescent foci (assemblies) by the same method as that described in Example 11, and a graph was prepared by plotting the total fluorescence luminance against time.

The subject of assay [3] is interaction between KRas and cRaf. As to the kind of experiment: EGF-dependent fluorescent foci near the cell membrane, Cos-7 cells (Example 23). To be noted: Cos-7 cells co-expressing p62(PB1)-KRas(WT) and AG-cRaf(R59A); 50 ng/ml; 37° C. for 30 minutes. Here is the method:
The cells were observed using a total internal reflection fluorescence microscopy system with arc lamp source (manufactured by Olympus Corporation, IX71-ARCEVA) capable of exciting only the vicinity of the cell membrane. Additionally, regarding the combination of pp62(PB1)-KRas (WT) with the phAG-cRaf (R59A), an image was obtained when no EGF was added. After that, EGF (manufactured by SIGMA CO.) was added to the cells to the final concentration of 50 ng/ml and left standing at 37° C. for 30 minutes. Then, the resultant was observed again.

Turning to “epidermal growth factor (NSDSECPLSHDGYCLHDGVCMYIEALDKYACNCVVGYIGERCQYRDLKWWELR; Epidermal growth factor; UniProt P01133 971-1023, looked up) [EGF]”, in assay [1], the “interaction between HRas and cRaf after EGF addition” value is on record as “took place by adding EGF”. In addition, in assay [2], the “fluorescent foci after EGF addition” value is listed as “fluorescent foci (assemblies) were significantly observed as time elapsed”. In addition, the “assembly formation after EGF addition” value in assay [3] was “the assembly formation was observed at the cell membranes”.

Values taken from US9766250B2, “Method for detecting protein-protein interaction” (MEDICAL & BIOLOGICAL LABORATORIES CO., LTD., priority 2011, dated 2017).
